The values below are quoted from earlier work in patent publication US8362253B2, “Solid forms of N-[2,4-bis(1,1-dimethylethyl)-5-hydroxyphenyl]-1,4-dihydro-4-oxoquinoline-3-carboxamide” (Vertex Pharmaceutical Incorporated, priority 2007, dated 2013).

For the data set, the system named is cystic fibrosis transmembrane conductance regulator (CFTR) protein. The settings on record: cells from patients with CF, CFTR present on the cell surface; background statement.

Turning to `CC(C)(C)c1cc(C(C)(C)C)c(NC(=O)c2c[nH]c3ccccc3c2=O)cc1O` [Compound 1, N-[2,4-bis(1,1-dimethylethyl)-5-hydroxyphenyl]-1,4-dihydro-4-oxoquinoline-3-carboxamide], the “Function of defective CFTR channels” value is “restored the function of defective CFTR channels”.
